The text below walks through data of US20220273607A1, “METHODS OF USING MODIFIED […] TREAT CANCER” (NORTHWESTERN UNIVERSITY, priority 2019, published 2022).

What all share (assay type): cell-based
One test deals with HT-1080 cells. The test is described as follows: CellTiter Blue cytotoxicity with and without CD36 blocker SSO, HT-1080. The settings on record: different compound concentrations and different concentrations of SSO, FIG. 3. Here is the method:
The compound of Example 2 (ODDA-PTX) was compared with paclitaxel (PTX) in terms of cellular uptake. The comparison was carried out in HT-1080 cell culture using sulfosuccinimidyl oleate (SSO), a chemical blocker of fatty acid translocase/CD36:
Cytotoxicity of the compounds was evaluated using the CellTiter Blue (CTB) assay (Promega, cat G8081). Treatments of fatty acid-conjugates were prepared as 1000× serial stock dilutions in DMSO, then diluted into media for 1×, 0.1% DMSO treatment solutions. […]
Expression of CD36 in HT-1080 was validated using flow cytometry and a fluorophore-conjugated CD36 antibody (CD36, eFluor 660, clone: eBioNL07 (NL07), eBioscience). […] Cells were resuspended in a final volume of 100 μL resuspension and analyzed via flow cytometry for presence of CD36. […]
HT-1080 cells were plated in 96-well plates one day before treatment, at a seeding density of 10,000 cells/well. […] Fluorescence was measured at 590 nm with excitation at 560 nm using a Perkin Elmer EnSpire plate reader. Average background fluorescence readings of the experimental wells (three wells per treatment concentration). Viability was calculated as the average background-subtracted signal in a well compared to that of a negative control (cells treated with vehicle, […] in media). […]
A general note: The colour change of resazurin is a common sign of viable cells or microbes.

For a further test, the system named is MCF-7 cells. As to the kind of experiment: CellTiter Blue cytotoxicity with and without CD36 blocker SSO, MCF-7. The settings on record: different compound concentrations and different concentrations of SSO, FIG. 4.
The subject of the next test is HepG2 cells. The test is described as follows: CellTiter Blue cytotoxicity with and without CD36 blocker SSO, HepG2. The note with it: different compound concentrations and different concentrations of SSO, FIG. 5.

Molecules are shown by their SMILES.

`CC(=O)O[C@H]1C(=O)[C@@]2(C)[C@H]([C@H](OC(=O)c3ccccc3)[C@]3(O)C[C@H](OC(=O)[C@H](OC(=O)CCCCCCCCCCCCCCCCC(=O)O)[C@@H](NC(=O)c4ccccc4)c4ccccc4)C(C)=C1C3(C)C)[C@]1(OC(C)=O)CO[C@@H]1C[C@@H]2O` [ODDA-PTX, Paclitaxel-C18 Diacid Conjugate]: the “change of percent viability of the cells with increasing concentration of the CD36 inhibitor” value in the test with HT-1080 cells, in the test with MCF-7 cells and in the test with HepG2 cells was “increasing the concentration of the CD36 inhibitor correlates with increasing percent viability” each time.
